Assay results taken from patent US10208046B2, “Nitrogen-containing heterocyclic compound” (Takeda Pharmaceutical Company Limited, priority 2014, dated 2019).

Target: T1, human M1 receptor (hCHRM1) (Homo sapiens, UniProt P11229)
T1 construct: expressed in transfected cells
T1 sequence (P11229 1-460): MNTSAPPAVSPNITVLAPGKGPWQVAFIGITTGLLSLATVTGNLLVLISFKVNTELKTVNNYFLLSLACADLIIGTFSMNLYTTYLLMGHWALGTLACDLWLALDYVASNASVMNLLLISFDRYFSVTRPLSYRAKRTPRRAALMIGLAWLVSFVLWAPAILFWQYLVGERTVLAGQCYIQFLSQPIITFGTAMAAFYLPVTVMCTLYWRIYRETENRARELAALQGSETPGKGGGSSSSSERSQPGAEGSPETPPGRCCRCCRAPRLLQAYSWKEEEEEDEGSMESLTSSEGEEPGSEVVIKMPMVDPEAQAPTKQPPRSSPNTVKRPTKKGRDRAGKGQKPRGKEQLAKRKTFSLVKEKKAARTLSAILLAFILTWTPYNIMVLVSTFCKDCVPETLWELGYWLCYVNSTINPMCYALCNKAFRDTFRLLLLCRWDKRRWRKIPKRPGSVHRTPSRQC
Assay: Measurement of M1 receptor positive allosteric modulator (M1PAM) activity, calcium fluorescence in CHO-K1 cells;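 on EC50: potency reported as IP value in nM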
Type: cell-based
Conditions: for activity (%) at 10 μM: 10 μM test compound with acetylcholine at EC20, 100% = acetylcholine 1 μM, 0% = DMSO; for EC50: inflection point in the concentration-dependent curve, acetylcholine at EC20 (final 0.6-0.8 nM), CHO-K1 cells expressing human M1, Fluo-4, FLIPRtetra, read-out: IP value
Protocol: Measurement of M1 Receptor Positive Allosteric Modulator (M1PAM) Activity
The activity of a test compound in the presence of acetylcholine at EC20 concentration (final concentration 0.6-0.8 nM), which affords an action corresponding to about 20% of the maximum activity, was measured as PAM activity. The method is as follows. CHO-K1 cells stably expressing a human M1 receptor (hCHRM1) were plated on a 384-well black clear bottom plate (BD Falcon) at 5,000 cells/well, and cultured in an incubator at 37° C., 5% CO2 for 1 day. The medium in the cell plate was removed, and assay buffer A containing calcium indicator (Recording medium (DOJINDO LABORATORIES), 0.1% BSA (Wako Pure Chemical Industries, Ltd.), 2.5 μg/mL Fluo-4 AM (DOJINDO LABORATORIES), 0.08% Pluronic F127 (DOJINDO LABORATORIES), 1.25 mM probenecid (DOJINDO LABORATORIES)) was added at 30 μL/well. The cells were left standing in the incubator at 37° C., 5% CO2 for 30 min, and further left standing at room temperature for 30 min. A test compound prepared by diluting with assay buffer B (HBSS (Invitrogen), 20 mM HEPES (Invitrogen), 0.1% BSA) containing 2.4-3.2 nM acetylcholine was added at 10 μL/well, and the fluorescence was measured by FLIPRtetra (Molecular Devices) for 1 min every 1 second. With the definition that the amount of change in the fluorescence on addition of acetylcholine (final concentration 1 μM) is 100% and that on addition of DMSO instead of a test compound is 0%, the activity (%) of the test compound was calculated, and the inflection point in the concentration-dependent curve of the test compound was calculated as IP values.

Structure (SMILES)	activity (%) at 10 μM	EC50
O=C1c2c(ccnc2OCC(F)F)CN1Cc1ccc(-c2cnn(CC(F)F)c2)cc1 [Example 61, 4-(2,2-difluoroethoxy)-2-(4-(1-(2,2-difluoroethyl)-1H-pyrazol-4-yl)benzyl)-1,2-dihydro-3H-pyrrolo[3,4-c]pyridin-3-one]	91%	51 nM
CCC(F)(F)COc1nccc2c1C(=O)N(Cc1ccc(-c3cnn(CC(F)(F)F)c3)cc1F)C2 [Example 62, 4-(2,2-difluorobutoxy)-2-(2-fluoro-4-(1-(2,2,2-trifluoroethyl)-1H-pyrazol-4-yl)benzyl)-1,2-dihydro-3H-pyrrolo[3,4-c]pyridin-3-one]	91%	40 nM
CCC(F)(F)COc1nccc2c1C(=O)N(Cc1ccc(-c3cnn(C(F)F)c3)cc1)C2 [Example 63, 4-(2,2-difluorobutoxy)-2-(4-(1-(difluoromethyl)-1H-pyrazol-4-yl)benzyl)-1,2-dihydro-3H-pyrrolo[3,4-c]pyridin-3-one]	91%	96 nM
O=C1c2c(ccnc2OCC(F)F)CN1Cc1ccc(-c2cnn(CC(F)(F)F)c2)cc1 [Example 65, 4-(2,2-difluoroethoxy)-2-(4-(1-(2,2,2-trifluoroethyl)-1H-pyrazol-4-yl)benzyl)-1,2-dihydro-3H-pyrrolo[3,4-c]pyridin-3-one]	106%	91 nM
CCn1cc(-c2ccc(CN3Cc4ccnc(OCC(F)F)c4C3=O)cc2)cn1 [Example 66, 4-(2,2-difluoroethoxy)-2-(4-(1-ethyl-1H-pyrazol-4-yl)benzyl)-1,2-dihydro-3H-pyrrolo[3,4-c]pyridin-3-one]	105%	66 nM
CCn1cc(-c2ccc(CN3Cc4ncnc(OCC(F)(F)CC)c4C3=O)cc2)cn1 [Example 68, 4-(2,2-difluorobutoxy)-6-(4-(1-ethyl-1H-pyrazol-4-yl)benzyl)-6,7-dihydro-5H-pyrrolo[3,4-d]pyrimidin-5-one]	97%	7.1 nM
CCC(F)(F)COc1ncnc2c1C(=O)N(Cc1ccc(-c3cnn(CC(F)(F)F)c3)cc1)C2 [Example 69, 4-(2,2-difluorobutoxy)-(4-(1-(2,2,2-trifluoroethyl)-1H-pyrazol-4-yl)benzyl)-6,7-dihydro-5H-pyrrolo[3,4-d]pyrimidin-5-one]	88%	9.6 nM
CCC(F)(F)COc1nccc2c1C(=O)N(Cc1ccc(-c3cn[nH]c3)cc1)C2 [Example 72, 4-(2,2-difluorobutoxy)-2-(4-(1H-pyrazol-4-yl)benzyl)-1,2-dihydro-3H-pyrrolo[3,4-c]pyridin-3-one]	90%	59 nM
CCC(F)(F)COc1nccc2c1C(=O)N(Cc1ccc(-c3cnn(CC(F)(F)F)c3)cc1)C2 [Example 73, 4-(2,2-difluorobutoxy)-2-(4-(1-(2,2,2-trifluoroethyl)-1H-pyrazol-4-yl)benzyl)-1,2-dihydro-3H-pyrrolo[3,4-c]pyridin-3-one]	94%	50 nM
CCC(F)(F)COc1ncnc2c1C(=O)N(Cc1ccc(-c3cn(C)nc3C)cc1F)C2 [Example 74, 4-(2,2-difluorobutoxy)-6-(4-(1,3-dimethyl-1H-pyrazol-4-yl)-2-fluorobenzyl)-6,7-dihydro-5H-pyrrolo[3,4-d]pyrimidin-5-one]	101%	8.7 nM
CCC(F)(F)COc1ncnc2c1C(=O)N(Cc1ccc(-c3cnn(C)c3)cc1)C2 [Example 75, 4-(2,2-difluorobutoxy)-6-(4-(1-methyl-1H-pyrazol-4-yl)benzyl)-6,7-dihydro-5H-pyrrolo[3,4-d]pyrimidin-5-one]	98%	13 nM
CCC(F)(F)COc1nccc2c1C(=O)N(Cc1ccc(-c3cnn(CC(F)F)c3)cc1)C2 [Example 76, 4-(2,2-difluorobutoxy)-2-(4-(1-(2,2-difluoroethyl)-1H-pyrazol-4-yl)benzyl)-1,2-dihydro-3H-pyrrolo[3,4-c]pyridin-3-one]	94%	45 nM
CCn1cc(-c2ccc(CN3Cc4ccnc(OCC(F)(F)CC)c4C3=O)cc2)cn1 [Example 77, 4-(2,2-difluorobutoxy)-2-(4-(1-ethyl-1H-pyrazol-4-yl)benzyl)-1,2-dihydro-3H-pyrrolo[3,4-c]pyridin-3-one]	99%	68 nM
Cn1cc(-c2ccc(CN3Cc4ncnc(OCC(C)(F)F)c4C3=O)cc2)cn1 [Example 78, 4-(2,2-difluoropropoxy)-6-(4-(1-methyl-1H-pyrazol-4-yl)benzyl)-6,7-dihydro-5H-pyrrolo[3,4-d]pyrimidin-5-one]	95%	19 nM
Cn1cc(-c2ccc(CN3Cc4ccnc(OCC(C)(C)F)c4C3=O)c(F)c2)cn1 [Example 81, 4-(2-fluoro-2-methylpropoxy)-2-(2-fluoro-4-(1-methyl-1H-pyrazol-4-yl)benzyl)-1,2-dihydro-3H-pyrrolo[3,4-c]pyridin-3-one]	88%	32 nM
Cc1nn(C)cc1-c1ccc(CN2Cc3ccnc(OCC(C)(C)F)c3C2=O)c(F)c1 [Example 82, 2-(4-(1,3-dimethyl-1H-pyrazol-4-yl)-2-fluorobenzyl)-4-(2-fluoro-2-methylpropoxy)-1,2-dihydro-3H-pyrrolo[3,4-c]pyridin-3-one]	95%	17 nM
CCn1cc(-c2ccc(CN3Cc4ccnc(OCC(C)(F)F)c4C3=O)cc2)cn1 [Example 84, 4-(2,2-difluoropropoxy)-2-(4-(1-ethyl-1H-pyrazol-4-yl)benzyl)-1,2-dihydro-3H-pyrrolo[3,4-c]pyridin-3-one]	96%	72 nM
Cn1cc(-c2ccc(CN3Cc4ccnc(OCC(C)(F)F)c4C3=O)c(F)c2)cn1 [Example 86, 4-(2,2-difluoropropoxy)-2-(2-fluoro-4-(1-methyl-1H-pyrazol-4-yl)benzyl)-1,2-dihydro-3H-pyrrolo[3,4-c]pyridin-3-one]	91%	21 nM
Cn1cc(-c2ccc(CN3Cc4ccnc(OCC(F)(F)F)c4C3=O)c(F)c2)cn1 [Example 87, 2-(2-fluoro-4-(1-methyl-1H-pyrazol-4-yl)benzyl)-4-(2,2,2-trifluoroethoxy)-1,2-dihydro-3H-pyrrolo[3,4-c]pyridin-3-one]	101%	32 nM
Cc1nn(C)cc1-c1ccc(CN2Cc3ccnc(OCC(F)(F)F)c3C2=O)c(F)c1 [Example 88, 2-(4-(1,3-dimethyl-1H-pyrazol-4-yl)-2-fluorobenzyl)-4-(2,2,2-trifluoroethoxy)-1,2-dihydro-3H-pyrrolo[3,4-c]pyridin-3-one]	101%	74 nM
CCC(F)(F)COc1nccc2c1C(=O)N(Cc1ccc(-c3cnn(C)c3)cc1F)C2 [Example 92, 4-(2,2-difluorobutoxy)-2-(2-fluoro-4-(1-methyl-1H-pyrazol-4-yl)benzyl)-1,2-dihydro-3H-pyrrolo[3,4-c]pyridin-3-one]	94%	15 nM
CCC(F)(F)COc1nccc2c1C(=O)N(Cc1ccc(-c3ccn(C)n3)cc1F)C2 [Example 97, 4-(2,2-difluorobutoxy)-2-(2-fluoro-4-(1-methyl-1H-pyrazol-3-yl)benzyl)-1,2-dihydro-3H-pyrrolo[3,4-c]pyridin-3-one]	104%	77 nM
Cn1cc(-c2ccc(CN3Cc4ncnc(OCC(F)(F)F)c4C3=O)cc2)nn1 [Example 104, 6-(4-(1-methyl-1H-1,2,3-triazol-4-yl)benzyl)-4-(2,2,2-trifluoroethoxy)-6,7-dihydro-5H-pyrrolo[3,4-d]pyrimidin-5-one]	95%	61 nM
Cn1cc(-c2ccc(CN3Cc4ccnc(OCC(C)(F)F)c4C3=O)c(F)c2)nn1 [Example 106, 4-(2,2-difluoropropoxy)-2-(2-fluoro-4-(1-methyl-1H-1,2,3-triazol-4-yl)benzyl)-1,2-dihydro-3H-pyrrolo[3,4-c]pyridin-3-one]	90%	29 nM
